Columns and labels:
[1] = Alcohol solubility tested (200 proof ethanol, 0.22 micrometer PTFE filter); assay type: physicochemical
Text: The following table lists the relative solubility of exemplary components of a formulation. A number of different dyes are listed along with their solubility information taken from the various literature sources and tested experimentally (200 proof ethanol and filtered through a 0.22 micrometer PTFE filter).

[2] = cited from earlier work

CCN(Cc1cccc(S(=O)(=O)[O-])c1)c1ccc(C(=C2C=CC(=[N+](CC)Cc3cccc(S(=O)(=O)[O-])c3)C=C2)c2ccccc2S(=O)(=O)[O-])cc1.[Na+].[Na+] [Blue #1]
Yes: Alcohol Solubility (tested) [1] | Alcohol Solubility (Literature) [2] | Water Solubility [2]

O=C1/C(=C2\Nc3ccc(S(=O)(=O)[O-])cc3C2=O)Nc2ccc(S(=O)(=O)[O-])cc21.[Na+].[Na+] [Blue #2]
Yes: Alcohol Solubility (tested) [1] | Alcohol Solubility (Literature) [2] | Water Solubility [2]

COc1cc(S(=O)(=O)[O-])c(C)cc1N=Nc1c(O)ccc2cc(S(=O)(=O)[O-])ccc12.[Na+].[Na+] [Red #40]
Yes: Alcohol Solubility (tested) [1] | Alcohol Solubility (Literature) [2] | Water Solubility [2]

O=C([O-])C1=NN(c2ccc(S(=O)(=O)[O-])cc2)C(=O)C1N=Nc1ccc(S(=O)(=O)[O-])cc1.[Na+].[Na+].[Na+] (stereo not drawn) [Yellow #5]
Yes: Alcohol Solubility (tested) [1] | Alcohol Solubility (Literature) [2] | Water Solubility [2]

— patent US10172797B2, “Extruded extended release abuse deterrent pill” (Pharmaceutical Manufacturing Research Services, Inc., priority 2013, dated 2019)
